Measurements as given in paper PMC5802807, “Heme interaction of the intrinsically disordered N-terminal peptide segment of human cystathionine-β-synthase” (Scientific Reports, 2018).

Biological target: T1, GB1CBS(1–40) (Homo sapiens, UniProt P35520)
T1 construct: gene CBS; His6 tag cut with thrombin; E. coli BL21(DE3); full-length CBS 551 residues
T1 sequence (P35520 1-40): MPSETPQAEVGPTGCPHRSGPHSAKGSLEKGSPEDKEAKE
Assay: UV/Vis titration, Soret band at […] nm
Assay type: binding

Kd: 2180 ± 640 nM
Structure (SMILES): C=CC1=C(C)C2=Cc3c(C=C)c(C)c4[n]3[Fe]([Cl])[n]3c(c(C)c(CCC(=O)O)c3=CC3=NC(=C4)C(C)=C3CCC(=O)O)=CC1=N2 [hemin]
